Measured values published in US20140295045A1, “Pyridine Derivatives With Umami Flavour” (Givaudan S.A., priority 2009, published 2014).

How the values were obtained:
Assay type in all cases: in vivo, human
trained sensory panel [1] = assay: Testing of compounds: tasting of 0.3% NaCl solution with 2 ppm compound by trained sensory panel; details: 2 ppm compound in a solution of 0.3% NaCl; trained sensory panel of 20 women
Description: Various compounds prepared in the previous examples were tested. Two solutions were prepared: A: a solution of 0.3% NaCl, B: a solution of 0.3% NaCl and 2 ppm compound as per Table 1. The samples were tasted by a trained sensory panel composed of 20 women aged between 30 and 60.

bench-top tasting panel [2] = assay: Model chicken broth (no MSG added, 0.3% sugar added), blind umami ranking; details: for Level preferred by panelists in this base: model chicken broth, 0.3% sugar added, % by weight
Description: (§1) The following compositions are made and tested. Using a bench-top tasting panel (consisting of 10 panelists—flavorists, application experts), panelists were asked to record the sensory attribute differences (umami) between the samples. All samples were tasted blind and ranked on umami. Model Chicken Broth—no MSG Added, 0.3% Sugar Added The model chicken broth powder was prepared from 11.9 g chicken fat, 23.81 g salt, 14.29 g sugar, 0.95 g onion powder, 49.01 g chicken powder, 0.04 g turmeric powder. To prepare the model chicken broth 2.0 g of powder was mixed 98.0 g hot water.

[3] = system: small group of flavourists; assay: Tomato soup formulation tasting against reference soup; details: 1.5 ppm compound in tomato soup containing MSG; 4 flavourists
Description: A tomato soup mix was prepared from 9.4 g sodium chloride, 1 g MSG, 0.08 g ribonucleotides (ex yeast), 32 g tomato powder (ex Spreda), 25.1 g glucose, 21 g starch (Ultrasperse™ 5 ex National Starch), 5 g palm fat powder, 3 g yeast powder, 1 g onion powder, 0.15 g carrot powder, 0.05 g ground white pepper, 0.3 g celery extract powder, 0.05 g ground laurel leaf powder, and 1.85 g sucrose. 25 g of the well-mixed ingredients was added to 250 g of boiling water and stirred until completely dissolved, to give a reference soup.
The reference soup was compared with a batch of the same soup containing 1.5 ppm of 1-(2-hydroxy-4-isobutoxyphenyl)-3-(pyridine-2-yl)propan-1-one.

bench-top tasting panel [4] = assay: Commercial organic chicken broth, blind umami ranking; details: for Level preferred by panelists in this base: commercial organic chicken broth, % by weight
From the text: The following compositions are made and tested. Using a bench-top tasting panel (consisting of 10 panelists—flavorists, application experts), panelists were asked to record the sensory attribute differences (umami) between the samples. All samples were tasted blind and ranked on umami. Commercial Organic Chicken Broth (Swanson's Certified Organic Chicken Broth—No added MSG, contains about 0.4% sugars)

bench-top tasting panel [5] = assay: Model chicken broth (no MSG added, no sugar added), blind umami ranking; details: for Level preferred by panelists in this base: model chicken broth, no MSG added, % by weight
Description: as §1, with “no” for “0.3%”

[6] = system: small group of flavourists; assay: Tomato ketchup tasting; details: 2 ppm compound in tomato ketchup; 4 flavourists
Description: A tomato ketchup was prepared from 19% tomato paste (28-30% dry weight), 8% vinegar (15%), 3% sodium chloride, 20% sugar and 50% water.
To one-half of the batch was added 2 ppm of 1-(2-hydroxy-4-methoxyphenyl)-3-(pyridin-2-yl)propan-1-one.

trained sensory panel [7] = assay: Potato chips tasting
Description: Plain potato chips were prepared.
One part was flavoured with 1.2% sodium chloride (sample A),
One part was flavoured with 1.2% sodium chloride and 0.3% MSG (sample B),
One part was flavoured with 1.2% sodium chloride and 2 ppm of 1-(2-hydroxy-4-methylphenyl)-3-(pyridin-2-yl)propan-1-one (sample C).
(§2) The samples were tasted by a trained sensory panel composed of 20 women aged between 30 and 60.

trained sensory panel [8] = assay: Comparative test with MSG: tasting of 0.3% NaCl / 0.03% MSG solution with compound; details: 5 ppm compound in 0.3% NaCl and 0.03% MSG; Solution A without compound: salty, umami
Description: Two solutions were prepared:
A: a solution of 0.3% NaCl and 0.03% MSG,
B: a solution of 0.3% NaCl, 0.03% MSG and 5 ppm of 1-(4-hydroxybenzo[d][1,3]dioxol-5-yl)-3-(pyridin-2-yl)propan-1-one.
as §2

[9] = 0.002% compound in model chicken broth, sugar added, Control 6th
[10] = 0.002% compound in commercial organic chicken broth, Control 5th
[11] = 0.001% compound in model chicken broth, Control 5th

Cc1cc(C)c(O)c(C(=O)CCc2ccccn2)c1 [1-(2-hydroxy-3,5-dimethylphenyl)3-(pyridine-2-yl)propan-1-one]
Taste description (trained sensory panel [1]): Umami

Cc1cc(O)c(C(=O)CCc2ccccn2)cc1C [1-(2-hydroxy-4,5-dimethylphenyl)-3-(pyridine-2-yl)propan-1-one]
Performance when evaluating for umami (bench-top tasting panel [2]; 0.002% compound in model chicken broth, sugar added): performed well | Finishing position in blind ranking of 6 samples on umami (bench-top tasting panel [2]; [9]): 2 | Level preferred by panelists in this base (bench-top tasting panel [2]): 0.002% | Taste description (trained sensory panel [1]): Umami, sweet, savoury, salty

CC(C)COc1ccc(C(=O)CCc2ccccn2)c(O)c1 [1-(2-hydroxy-4-isobutoxyphenyl)-3-(pyridine-2-yl)propan-1-one]
Finishing position in blind ranking of 6 samples on umami (bench-top tasting panel [2]; [9]): 4 | Level preferred by panelists in this base (bench-top tasting panel [2]): 0.002% | Taste of test soup compared with reference soup [3]: more umami, had a clear lingering effect, was more salty and was more complex | Finishing position in blind ranking of 6 samples on umami (bench-top tasting panel [4]; [10]): 3 | Level preferred by panelists in this base (bench-top tasting panel [4]): 0.002% | Finishing position in blind ranking of 6 samples on umami (bench-top tasting panel [5]; [11]): 4 | Level preferred by panelists in this base (bench-top tasting panel [5]): 0.001% | Taste description (trained sensory panel [1]): Umami, sweet, salty, bouillon, lingering,

COc1ccc(C(=O)CCc2ccccn2)c(O)c1 [1-(2-hydroxy-4-methoxyphenyl)-3-(pyridin-2-yl)propan-1-one]
Finishing position in blind ranking of 6 samples on umami (bench-top tasting panel [2]; [9]): 3 | Level preferred by panelists in this base (bench-top tasting panel [2]): 0.002% | Taste of test ketchup compared with ketchup without the compound [6]: clearly more umami, more salty and had a pleasant savoury note | Finishing position in blind ranking of 6 samples on umami (bench-top tasting panel [4]; [10]): 4 | Level preferred by panelists in this base (bench-top tasting panel [4]): 0.002% | Finishing position in blind ranking of 6 samples on umami (bench-top tasting panel [5]; [11]): 2 | Level preferred by panelists in this base (bench-top tasting panel [5]): 0.001% | Taste description (trained sensory panel [1]): umami, sweet, salty, longlasting

Cc1ccc(C(=O)CCc2ccccn2)c(O)c1 [1-(2-hydroxy-4-methylphenyl)-3-(pyridin-2-yl)propan-1-one]
Finishing position in blind ranking of 6 samples on umami (bench-top tasting panel [2]; 0.001% compound in model chicken broth, sugar added, Control 6th): 5 | Level preferred by panelists in this base (bench-top tasting panel [2]): 0.001% | Finishing position in blind ranking of 6 samples on umami (bench-top tasting panel [4]; 0.001% compound in commercial organic chicken broth, Control 5th): 2 | Level preferred by panelists in this base (bench-top tasting panel [4]): 0.001% | Finishing position in blind ranking of 6 samples on umami (bench-top tasting panel [5]; 0.0005% compound in model chicken broth, Control 5th): 3 | Level preferred by panelists in this base (bench-top tasting panel [5]): 0.0005% | Taste description (sample C) (trained sensory panel [7]; potato chips with 1.2% sodium chloride and 2 ppm compound, sample A with salt only: salty): salty, strong umami, long lasting, savoury, bouillon | Panel preference (trained sensory panel [7]; potato chips, sample C (1.2% sodium chloride, 2 ppm compound) versus sample A (salt) and sample B (salt, 0.3% MSG)): preferred sample C over the other two samples | Taste description (trained sensory panel [1]): Umami, sweet, licorice, savoury

Cc1ccc(O)c(C(=O)CCc2ccccn2)c1 [1-(2-hydroxy-5-methylphenyl)-3-(pyridine-2-yl)propan-1-one]
Taste description (trained sensory panel [1]): Umami

Cc1cccnc1CCC(=O)c1ccccc1O [1-(2-hydroxyphenyl)-3-(3-methylpyridin-2-yl)propan-1-one]
Taste description (trained sensory panel [1]): Slightly umami, savoury, meaty

Cc1ccc(CCC(=O)c2ccccc2O)nc1 [1-(2-hydroxyphenyl)-3-(5-methylpyridin-2-yl)propan-1-one]
Taste description (trained sensory panel [1]): Slightly umami, some green aftertaste,

COc1ccccc1C(=O)CCc1ccccn1 [1-(2-methoxyphenyl)-3-(pyridin-2-yl)propan-1-one]
Taste description (trained sensory panel [1]): Umami, slightly bitter

O=C(CCc1ccccn1)c1ccc(OC2CCCC2)cc1O [1-(4-(cyclopentyloxy)-2-hydroxyphenyl)-3-(pyridine-2-yl)propan-1-one]
Taste description (trained sensory panel [1]): Umami

O=C(CCc1ccccn1)c1ccc(OCC2CC2)cc1O [1-(4-cyclopropylmethoxy)-2-hydroxyphenyl)-3-(pyridine-2-yl)propan-1-one]
Taste description (trained sensory panel [1]): Umami

CCOc1ccc(C(=O)CCc2ccccn2)c(O)c1 [1-(4-ethoxy-2-hydroxyphenyl)-3-(pyridine-2-yl)propan-1-one]
Taste description (trained sensory panel [1]): Umami, floral

O=C(CCc1ccccn1)c1ccc2c(c1O)OCO2 [1-(4-hydroxybenzo[d][1,3]dioxol-5-yl)-3-(pyridin-2-yl)propan-1-one]
Taste description (Solution B) (trained sensory panel [8]): salty, umami, more bouillon-like, more complex, less sweet | Taste description (trained sensory panel [1]): Clearly umami, slightly yeasty, bouillon

CCc1ccc(O)c(C(=O)CCc2ccccn2)c1 [1-(5-ethyl-2-hydroxyphenyl)-3-(pyridine-2-yl)propan-1-one]
Taste description (trained sensory panel [1]): Umami, slightly bitter

N[C@@H](CCC(=O)O)C(=O)[O-].[Na+] [MSG, monosodium glutamate, reference compound]
Finishing position in blind ranking of 6 samples on umami (bench-top tasting panel [2]; 0.05% MSG (Reference) in model chicken broth, sugar added): highest umami | Finishing position in blind ranking of 6 samples on umami (bench-top tasting panel [4]; 0.05% MSG (Reference) in commercial organic chicken broth): highest umami | Finishing position in blind ranking of 6 samples on umami (bench-top tasting panel [5]; 0.05% MSG (Reference) in model chicken broth): highest umami | Taste description (sample B) (trained sensory panel [7]; potato chips with 1.2% sodium chloride and 0.3% MSG): salty and umami
